Assays:
[1] = test system: test mice (6-8-week-old athymic nu/nu on a BALB/c background); test: Quantity of anti-E2 antibody (ELISA) in blood of mice injected with vaccine; type: in vivo; conditions: when used together with alum; E2 protein antigen
Description: 5 μg of E2 protein antigen obtained in Reference Example was dissolved in 150 μl of PBS (pH 7.2), and 7 μg of the peptide of sequence of SEQ ID NO: 1 synthesized using a conventional peptide synthesis method (Houghten, R. A. et al., Nature, 354, 84(1991)) was added thereto together with alum to obtain a vaccine.
The vaccine thus obtained was injected subcutaneously into test mice (6-8-week-old athymic nu/nu on a BALB/c background). After 5 weeks, a booster injection was carried out, and after another 2 weeks, blood samples were taken from the mice.
For comparison, three different vaccine compositions were also tested as above. These comparative controls were: a vaccine containing E2 protein and alum; a vaccine containing E2 protein and the peptide of sequence of SEQ ID NO: 1; and a vaccine containing alum and the peptide of sequence of SEQ ID NO: 1. The peptides used in this Example include the D-Met residue of SEQ ID NO: 1 having CONH2 substituted for the carboxyl group. […]
Thereafter, 80 μl/well of color former (ABSI (Chemicon®)) were added to each of the 96-wells of the plate, and they were incubated at room temperature for 20 minutes. After the reaction, the O.D. of each well was determined at the wavelength of 405 nm with an ELISA reader.

[2] = test system: human B-lymphocyte cell line U266; conditions: cited from earlier work
phospholipase C (PLC) = conditions: in B-lymphocytes; cited from earlier work
neutrophils = conditions: stimulated neutrophils; cited from earlier work
human neutrophils = conditions: cited from earlier work
[3] = test system: monocytes, B-lymphocytes, and neutrophils; conditions: cited from earlier work
[4] = test system: specific receptor protein in the cell membrane of the U266 cell line; conditions: cited from earlier work

Trp Lys Tyr Met Val Met [peptide of SEQ ID NO: 1]
effect of promoting the vaccination efficiency [1]: remarkable synergistic effect
intracellular calcium [Ca2+]I release [2]: induces
activity of phospholipase C (PLC) (phospholipase C (PLC)): enhances
production of active oxygen species (neutrophils): increase
chemotaxis (human neutrophils): induces chemotaxis
activation of monocytes, B-lymphocytes, and neutrophils [3]: activates
binding with receptor, activation of the cellular signal pathway [4]: binding with a specific receptor protein
